Key:
Assay in all cases: Kinase profiling in a biochemical assay panel (mobility shift assays and ELISA), %-inhibition at 1 μM; selectivity entropy
[1] = target: panel of more than 300 wild-type and mutant kinases (313 kinase panel) (Homo sapiens, UniProt Q9H4B4); details: kinase PLK3; 1 μM
[2] = target: panel of more than 300 wild-type and mutant kinases (313 kinase panel) (Homo sapiens, UniProt Q8N4C8)
[3] = target: panel of more than 300 wild-type and mutant kinases (313 kinase panel) (Homo sapiens, UniProt P11802); details: kinase CDK4/CycD3; 1 μM compound
Sequence of panel of more than 300 wild-type and mutant kinases (313 kinase panel) (Homo sapiens, UniProt P11802) (P11802 whole entry, change not shown): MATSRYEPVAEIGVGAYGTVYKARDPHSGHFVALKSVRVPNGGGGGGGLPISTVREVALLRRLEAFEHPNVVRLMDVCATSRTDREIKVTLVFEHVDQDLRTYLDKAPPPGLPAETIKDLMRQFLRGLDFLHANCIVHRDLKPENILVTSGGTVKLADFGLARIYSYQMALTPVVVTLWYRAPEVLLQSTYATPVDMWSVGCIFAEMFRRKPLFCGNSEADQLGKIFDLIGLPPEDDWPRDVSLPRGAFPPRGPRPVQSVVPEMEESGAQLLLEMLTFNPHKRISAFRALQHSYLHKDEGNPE

[4] = target: panel of more than 300 wild-type and mutant kinases (313 kinase panel) (Homo sapiens, UniProt Q13627); details: kinase DYRK1A; compound at 1 μM
[5] = target: panel of more than 300 wild-type and mutant kinases (313 kinase panel) (Homo sapiens, UniProt Q9NYA1); details: kinase SPHK1; 1 μM
[6] = target: panel of more than 300 wild-type and mutant kinases (313 kinase panel) (Homo sapiens, UniProt Q00534); details: kinase CDK6/CycD3; 1 μM compound
[7] = target: T1, panel of more than 300 wild-type and mutant kinases (313 kinase panel) (Homo sapiens, UniProt O15264); details: kinase p38δ; 1 μM
T1 sequence (O15264 1-365): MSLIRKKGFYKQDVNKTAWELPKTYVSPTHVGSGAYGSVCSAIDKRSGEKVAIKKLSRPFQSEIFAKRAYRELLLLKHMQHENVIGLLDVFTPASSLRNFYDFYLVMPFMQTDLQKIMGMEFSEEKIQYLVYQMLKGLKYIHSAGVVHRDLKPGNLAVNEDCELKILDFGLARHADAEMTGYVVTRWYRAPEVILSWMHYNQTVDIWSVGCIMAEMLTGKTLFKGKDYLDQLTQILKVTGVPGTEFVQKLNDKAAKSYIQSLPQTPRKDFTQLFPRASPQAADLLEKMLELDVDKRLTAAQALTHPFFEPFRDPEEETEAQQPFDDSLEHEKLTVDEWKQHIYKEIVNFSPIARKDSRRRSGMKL

[8] = target: panel of more than 300 wild-type and mutant kinases (313 kinase panel) (Homo sapiens, UniProt Q13882); details: kinase BRK; 1 μM compound
Sequence of panel of more than 300 wild-type and mutant kinases (313 kinase panel) (Homo sapiens, UniProt Q13882) (Q13882 whole entry, change not shown): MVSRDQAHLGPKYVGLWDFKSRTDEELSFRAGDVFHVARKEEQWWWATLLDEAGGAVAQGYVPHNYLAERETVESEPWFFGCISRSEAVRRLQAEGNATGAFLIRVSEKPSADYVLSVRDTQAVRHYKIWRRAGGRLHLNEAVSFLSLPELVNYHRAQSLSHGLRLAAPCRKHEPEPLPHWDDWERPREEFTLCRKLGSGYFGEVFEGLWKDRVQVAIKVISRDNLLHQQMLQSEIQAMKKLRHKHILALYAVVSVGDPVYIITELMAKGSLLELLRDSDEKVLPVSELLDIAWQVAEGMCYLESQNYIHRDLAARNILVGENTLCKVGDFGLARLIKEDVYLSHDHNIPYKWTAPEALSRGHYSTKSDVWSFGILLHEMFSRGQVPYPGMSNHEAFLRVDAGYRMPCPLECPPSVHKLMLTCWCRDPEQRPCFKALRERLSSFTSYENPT

[9] = target: T2, panel of more than 300 wild-type and mutant kinases (313 kinase panel) (Homo sapiens, UniProt P51817); details: kinase PRKX; 1 μM
T2 sequence (P51817 1-358): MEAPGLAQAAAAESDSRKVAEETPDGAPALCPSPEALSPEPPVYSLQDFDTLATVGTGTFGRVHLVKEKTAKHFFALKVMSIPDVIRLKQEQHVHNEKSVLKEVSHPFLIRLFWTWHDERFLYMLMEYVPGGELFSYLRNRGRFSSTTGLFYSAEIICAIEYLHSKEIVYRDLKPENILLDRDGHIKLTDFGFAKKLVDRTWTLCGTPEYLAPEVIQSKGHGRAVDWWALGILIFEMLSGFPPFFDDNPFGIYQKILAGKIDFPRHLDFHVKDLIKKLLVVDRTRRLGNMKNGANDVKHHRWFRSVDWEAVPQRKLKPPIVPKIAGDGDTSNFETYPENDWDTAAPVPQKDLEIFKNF

[10] = target: panel of more than 300 wild-type and mutant kinases (313 kinase panel) (Homo sapiens, UniProt P54646)
[11] = kinase AMPKα2/β1/γ1, 1 μM compound

Sequence of panel of more than 300 wild-type and mutant kinases (313 kinase panel) (Homo sapiens, UniProt Q8N4C8) (Q8N4C8 whole entry, change not shown): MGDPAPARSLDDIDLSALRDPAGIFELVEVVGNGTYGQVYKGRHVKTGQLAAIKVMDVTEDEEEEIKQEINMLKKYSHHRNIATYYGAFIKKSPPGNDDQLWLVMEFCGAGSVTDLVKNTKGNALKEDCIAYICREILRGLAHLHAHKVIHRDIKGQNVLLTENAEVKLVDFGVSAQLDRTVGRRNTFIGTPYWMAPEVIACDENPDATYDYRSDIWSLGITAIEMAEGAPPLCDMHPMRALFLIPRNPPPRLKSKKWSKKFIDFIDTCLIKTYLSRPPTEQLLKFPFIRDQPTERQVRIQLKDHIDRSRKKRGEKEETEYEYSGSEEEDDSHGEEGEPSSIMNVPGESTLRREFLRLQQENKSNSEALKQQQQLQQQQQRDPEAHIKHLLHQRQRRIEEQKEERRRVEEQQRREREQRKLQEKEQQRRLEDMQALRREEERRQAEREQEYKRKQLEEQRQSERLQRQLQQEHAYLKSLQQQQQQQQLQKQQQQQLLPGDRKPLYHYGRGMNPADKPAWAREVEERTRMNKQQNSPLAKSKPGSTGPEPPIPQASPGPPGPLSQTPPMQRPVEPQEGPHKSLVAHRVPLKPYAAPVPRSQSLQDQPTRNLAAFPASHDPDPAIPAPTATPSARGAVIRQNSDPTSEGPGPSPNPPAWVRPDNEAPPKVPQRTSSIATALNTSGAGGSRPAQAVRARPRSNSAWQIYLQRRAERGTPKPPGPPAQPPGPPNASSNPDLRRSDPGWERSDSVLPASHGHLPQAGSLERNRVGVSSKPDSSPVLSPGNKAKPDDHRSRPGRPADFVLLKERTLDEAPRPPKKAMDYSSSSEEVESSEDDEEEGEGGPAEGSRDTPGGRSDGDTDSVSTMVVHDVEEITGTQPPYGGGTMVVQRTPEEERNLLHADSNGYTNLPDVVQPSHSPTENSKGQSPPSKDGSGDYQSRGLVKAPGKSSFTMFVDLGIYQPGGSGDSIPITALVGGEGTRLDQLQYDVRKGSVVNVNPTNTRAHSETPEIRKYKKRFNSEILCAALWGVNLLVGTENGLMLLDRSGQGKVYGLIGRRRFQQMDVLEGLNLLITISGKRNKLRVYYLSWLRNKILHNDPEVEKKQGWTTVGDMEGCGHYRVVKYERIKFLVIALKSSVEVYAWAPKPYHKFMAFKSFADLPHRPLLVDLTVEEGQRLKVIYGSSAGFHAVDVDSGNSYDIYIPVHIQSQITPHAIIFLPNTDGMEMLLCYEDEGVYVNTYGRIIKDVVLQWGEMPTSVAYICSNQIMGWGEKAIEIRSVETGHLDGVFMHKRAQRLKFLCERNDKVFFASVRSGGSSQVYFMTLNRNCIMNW
Sequence of panel of more than 300 wild-type and mutant kinases (313 kinase panel) (Homo sapiens, UniProt Q9H4B4) (Q9H4B4 whole entry, change not shown): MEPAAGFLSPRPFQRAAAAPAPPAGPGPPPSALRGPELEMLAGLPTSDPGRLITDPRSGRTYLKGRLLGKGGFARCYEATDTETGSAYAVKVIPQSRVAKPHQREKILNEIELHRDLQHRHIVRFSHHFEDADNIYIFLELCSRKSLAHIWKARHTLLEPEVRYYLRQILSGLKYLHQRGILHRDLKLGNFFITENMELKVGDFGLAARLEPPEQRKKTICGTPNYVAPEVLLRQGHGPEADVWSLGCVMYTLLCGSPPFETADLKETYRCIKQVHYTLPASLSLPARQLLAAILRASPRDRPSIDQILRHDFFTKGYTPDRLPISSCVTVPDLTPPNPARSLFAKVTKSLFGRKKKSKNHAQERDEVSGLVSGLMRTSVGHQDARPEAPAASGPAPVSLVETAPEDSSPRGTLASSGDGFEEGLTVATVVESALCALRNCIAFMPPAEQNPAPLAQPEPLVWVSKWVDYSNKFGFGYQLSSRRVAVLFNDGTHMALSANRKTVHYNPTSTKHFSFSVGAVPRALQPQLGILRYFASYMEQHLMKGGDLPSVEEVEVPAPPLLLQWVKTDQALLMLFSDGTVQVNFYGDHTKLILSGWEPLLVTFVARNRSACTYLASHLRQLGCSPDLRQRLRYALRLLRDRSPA

Compound	%-inhibition of PLK3 [1] [%]	%-inhibition of MINK ([2]; kinase MINK, 1 μM) [%]	%-inhibition, CDK4/CycD3 [3] [%]	%-inhibition of DYRK1A [4] [%]	%-inhibition of SPHK1 [5] [%]	%-inhibition, CDK6/CycD3 [6] [%]	%-inhibition of p38δ [7] [%]	%-inhibition, BRK [8] [%]	%-inhibition of PRKX [9] [%]	%-inhibition, AMPKα2/β1/γ1 [10, 11] [%]	%-inhibition of MINK ([2]; 1 µM) [%]	%-inhibition, AMPKα2/β1/γ1 ([10]; 1 µM) [%]
CNC(=O)c1cc(Oc2ccc(NC(=O)Nc3ccc(Cl)c(C(F)(F)F)c3)c(F)c2)ccn1 [regorafenib]	2.24	24	6.52	-15	-14	-1.31	2.22	20	-5.52	16		
N#CC[C@H](C1CCCC1)n1cc(-c2ncnc3[nH]ccc23)cn1 [ruxolitinib]	13		-1.74	-5	-15	-6	0.0923	-4	16		-6	7.49
CO[C@H]1C[C@@H]2CC[C@@H](C)[C@@](O)(O2)C(=O)C(=O)N2CCCC[C@H]2C(=O)O[C@H]([C@H](C)C[C@@H]2CC[C@@H](OC(=O)C(C)(CO)CO)[C@H](OC)C2)CC(=O)[C@H](C)/C=C(\C)[C@@H](O)[C@@H](OC)C(=O)[C@H](C)C[C@H](C)/C=C/C=C/C=C/1C [temsirolimus]	-4.39	-4	-2.83	-3	-14	-3.18	-5.63	-6	-1.9	-4		
CC(=O)Nc1cccc(-n2c(=O)n(C3CC3)c(=O)c3c(Nc4ccc(I)cc4F)n(C)c(=O)c(C)c32)c1 [trametinib]	-6.59	-1.8	5.62	-1.23	-11	-4.23	-2.7	-5.53	-1.19	1.21		
COc1cc2c(Nc3ccc(Br)cc3F)ncnc2cc1OCC1CCN(C)CC1 [vandetanib]	-6	24	-9	-11	-13	-1.19	0.0923	100	-5.69	4.74		
CCCS(=O)(=O)Nc1ccc(F)c(C(=O)c2c[nH]c3ncc(-c4ccc(Cl)cc4)cc23)c1F [vemurafenib]	-2.83	10	-3.26	-18	-11	2.43	8	98	-3.45	6.49		

— article PMC3961306, “Comparison of the Cancer Gene Targeting and Biochemical Selectivities of All Targeted Kinase Inhibitors Approved for Clinical Use” (PLoS ONE, 2014)
